Measured values published in PMC11868579 (Nature Communications, 2024).
“And” between values parts separate entries of the source, which are not always exact repeats. Identical values can stand only once.

Key:
[1] = tested on: H1299 eIF4E-dTAG clones (C2-2, C3-1, N2-1, N3-2) and C3-1 rescue models; test: IncuCyte real-time cell growth of eIF4E-dTAG clones and rescue models; assay type: cell-based, human; conditions: for proliferation on co-treatment: 25 μM with dTAG^V-1
Procedure: Real time monitoring of cell growth was performed with the IncuCyte ZOOM live cell imaging system (Essen BioSciences, USA). Cells were seeded in 96 well plates (Corning, cat#353072) and treated on the next day. The resulting phase-contrast images were analysed using IncuCyte ZOOM 2018A software and results were expressed as percentage confluency of cells.

IRES-driven translation = test: HeLa in vitro translation assay, IRES-driven reporter; assay type: biochemical, human; conditions: for rLuc (IRES) luminescence normalized to DMSO control, Average: HeLa lysate IVT, n=3
Procedure: HeLa In vitro translation (IVT) assay kits were purchased from Thermo Fisher(cat#88882). Bicistronic reporter mRNA was prepared from using a CMV/T7-renilla luciferase-IRES(FDMV)-firefly luciferase reporter vector as template DNA (supplied by Oxford Genetics Ltd.) using Message Machine T7 Ultra transcription Kit (Thermo Fisher, cat# AM1345) to generate in vitro transcribed mRNA. DNA template was removed with Turbo DNase from the transcription kit and the mRNA purified using RNeasy columns (Qiagen, cat#74204). RNA concentration was adjusted to 1 µg/µl using a Nanodrop. In vitro translation assays were then set up using a HeLa IVT kit according to the manufacturer’s protocol. The reaction was analysed using Dual Glo luciferase reporter assays (Promega, cat#E2920). Compounds were diluted from 100x DMSO stocks 1:10 in PBS and 2.5 µl transferred to 96 well PCR plates (Starlab, cat#I1402-9700). 22.5 µl IVT reaction mix (1.5 mL HeLa lysate, 60 µl RNAsin (Promega, cat#N2115), 300 µl accessory proteins, 600 µl reaction buffer, 200 µl nuclease free water and 30 µl […] mRNA) was added and incubated for 30 min at 30 °C (PCR alphacycler 4, PCRmax, Stone, Staffordshire, UK). The samples were placed on ice for 10 min, then 10 µl was removed and transferred to a white 96 well assay plate (Corning, cat#3917). […]

4E-BP1 binding to eIF4E = biological target: T1, 4E-BP1 binding to eIF4E (Homo sapiens, UniProt P06730); test: Co-immunoprecipitation with eIF4E antibody, immunoblot for 4E-BP1, SW620 lysates; assay type: biochemical; conditions: 1–100 µM, 30 min
T1 construct: endogenous in cells; host or cells: SW620 cell lysates
Procedure: Cells were harvested by trypsinisation and washed with PBS before lysis in MSD lysis buffer (150 mM NaCl, 20 mM Tris pH 7.5, 1 mM EDTA, 1 mM EGTA, 1% Triton X-100) containing protease inhibitors (Roche, complete mini tablet, cat# 11836153001) and phosphatase inhibitors (50 mM NaF and 100 mM Na3VO4). Lysate was placed on ice for 30 min and then cleared in a microfuge at 17,000 x g for 10 min at 4 °C. The protein concentration of the cleared lysate was determined by BCA assay (Pierce) and adjusted to 4 mg/ml with lysis buffer. […] 100 μl of lysate and 100 μl of beads were then incubated with shaking overnight at 4 °C. Samples were then washed 3x with 1 ml PBS, resuspended in 100 μl PBS and boiled for 10 min with 1x SDS-PAGE sample buffer containing 10 μl 1 mM DTT.
After seeding overnight in 6 well plates (Corning, cat#353046), cells were treated with compounds for the indicated times and concentration, harvested and the cell pellet lysed on ice in cell lysis buffer (Cell Signaling, cat#9803), supplemented with 1x Halt^TM protease inhibitor cocktail (Fisher Scientific, cat#78429) and cOmplete^TM protease inhibitor cocktail (Sigma-Aldrich, cat#11836153001) for 1 hr. Protein was quantified using BCA protein kit (Fisher Scientific, cat#23225). […] Quantitative densitometry analysis of protein bands was performed using Image J v1.53 software.

eIF4E–4E-BP1 interaction = eIF4E–4E-BP1 interaction (Homo sapiens, UniProt P06730); test: Electro-chemiluminescent binding assay, eIF4E:4E-BP1, HeLa cell lysates; assay type: biochemical; set-up: endogenous in cells; host or cells: HeLa cell lysates; conditions: for EC50: read-out: Inhibition of PPI in HeLa cells: eIF4E–4E-BP1 interaction, HeLa cell lysates, values in parentheses
Procedure: This assay uses plates with carbon electrodes and electro-chemiluminescent labels (SULFO-TAGs) that are conjugated to detection antibodies. When an electric current is applied to the plate electrodes the SULFO-TAG labels will emit light that is measured to quantify analytes in the sample. […] The plates were washed with 3 ×150 µl/well MSD wash buffer (cat#R61AA-1; 0.2% Tween-20 in PBS), then blocked with 150 µl/well block buffer (MSD, cat# R93AA) for 1 h. […] The incubated plates were washed 4x in 150 µl in MSD wash buffer and were re-blocked by the addition of 25 μl of blocking buffer containing a 1:500 dilution of the secondary antibody and incubated for 1 hr at RT with rotational shaking. […] Plates were then washed again 4x in 150 µl in MSD wash buffer and 25 μl of a 1:50 dilution of Goat anti-rabbit Sulfo-Tag (MSD, Cat# R32AB-1) in MSD blocking buffer was added and the plates incubated for 1 h at RT with rotational shaking. After a final wash step, 150 μl Read Buffer T4X (MSD, Cat# R92-TC2) was added and the plate read using the MSD QuickPlex SQ 120 plate reader.

H1299 cells = test: CellTiter-Blue cell viability, H1299; assay type: cell-based, human; conditions: for Cell viability by cell titre blue assay, Average: H1299, 4 days, n=3
Procedure: Cell viability was measured by CellTiter-Blue® Cell Viability Assay. Cells were seeded in 96 well plates (Corning, cat#353072) and left overnight. Compounds were added at a range of concentrations and plates incubated at 37 °C for 96 hr. Cell titre blue reagent (Promega, Hampshire, UK, cat# G8081) was added (5 μl/well) and incubated for a further 2 h at 37 °C. Fluorescence (579Ex/584Em) was measured using a PHERAstar plate reader.

Sequence of eIF4E–4E-BP1 interaction (P06730 2-217 limits assumed): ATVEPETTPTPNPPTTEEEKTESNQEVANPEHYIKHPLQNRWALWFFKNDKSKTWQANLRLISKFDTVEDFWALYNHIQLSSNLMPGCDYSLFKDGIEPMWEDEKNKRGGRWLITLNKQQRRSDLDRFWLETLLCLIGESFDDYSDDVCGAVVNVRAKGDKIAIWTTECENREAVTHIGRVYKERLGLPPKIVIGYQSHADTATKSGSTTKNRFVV
T1 sequence (P06730 2-217 limits assumed): as above

Row | Compound | rLuc (IRES) luminescence normalized to DMSO control, Average (IRES-driven translation; 1 μM) [%] | rLuc (IRES) luminescence normalized to DMSO control, Average (IRES-driven translation; 10 μM) [%] | rLuc (IRES) luminescence normalized to DMSO control, Average (IRES-driven translation; 100 μM) [%] | effect on 4E-BP1 binding to eIF4E (co-immunoprecipitation) (4E-BP1 binding to eIF4E) | EC50 (eIF4E–4E-BP1 interaction) [µM] | Cell viability by cell titre blue assay, Average (H1299 cells; 0.62 uM) | Cell viability by cell titre blue assay, Average (H1299 cells; 1.85 uM) | Cell viability by cell titre blue assay, Average (H1299 cells; 5.56 uM) | Cell viability by cell titre blue assay, Average (H1299 cells; 16.67 uM) | Cell viability by cell titre blue assay, Average (H1299 cells; 50 uM) | other results
1 | CC[C@@H](O[C@H](C)CO)c1ccc(-c2ccccc2F)cc1NCCO [Compound 5] | 100.6 | 89.2 | 98.4 | limited effect | > 100 | 92.413 | 89.367 | 90.001 | 80.933 | 48.944 | effects on cell growth, control combination ([1]; compound 5 with dTAG^V-1): no significant effects; effect on cap-independent IRES-driven translation (IRES-driven translation; 1, 10, 100 µM): no significant effect
2 | CC[C@H](C(=O)N1CCCC[C@H]1C(=O)O[C@H](CCc1ccc(OC)c(OC)c1)c1ccccc1OCC(=O)NCCCCCCC(=O)N[C@H](C(=O)N1C[C@H](O)C[C@H]1C(=O)N[C@@H](C)c1ccc(-c2scnc2C)cc1)C(C)(C)C)c1cc(OC)c(OC)c(OC)c1 [dTAG^V-1] | – | – | – | – | – | – | – | – | – | – | growth of eIF4E-dTAG clones ([1]; treatment for 6 days, 0.5 or 1 µM): inhibited growth of all 4 clones
3 | CC[C@H](O[C@H](C)CO)c1ccc(-c2ccccc2F)cc1NCCO [Compound 4] | 97.0 | 85.6 | 88.7 | did not disrupt 4E-BP1 binding to eIF4E | > 100 | 93.752 | 89.518 | 87.397 | 77.938 | 33.702 | proliferation on co-treatment ([1]; C3-1 or L85R rescue line): no additional loss of proliferation or MCL1 expression; proliferation on co-treatment ([1]; W73F mutant model): significant combinatorial effect on proliferation; effect on proliferation ([1]; 25 μM, absence of dTAG^V-1, C3-1, W73F and L85R models): no effect on the MCL1 biomarker or proliferation; effects on cell growth, control combination ([1]; compound 4 with neg-dTAG^V-1): no significant effects; sensitisation on co-treatment ([1]; with dTAG^V-1, W73F mutant model): ≈ 50%; EC50 (IRES-driven translation; HeLa in vitro translation, 30 min, read-out: effect on IRES-driven translation): > 100 µM; 4E-BP1:eIF4E HeLa, luminescence ratio normalised to DMSO control (eIF4E–4E-BP1 interaction; HeLa lysates, 100 µM, 30 min, single experiments Expt 1, Expt 2): 88% and 92%; antiproliferative activity (H1299 cells; H1299, 96 hr): lacked on-target antiproliferative activity
